Reference: publication PMC4844575, “The influence of different metal-chelate conjugates of pentixafor on the CXCR4 affinity” (EJNMMI Research, 2016)
Where a SMILES comes first, the peptide text is derived from it. Side-chain parts run from the residue outwards. [ ]: non-standard residue; d: D form. The star is where a group is joined. DFO(CSNHC6H4NHCS) = CC(=O)N(O)CCCCCNC(=O)CCC(=O)N(O)CCCCCNC(=O)CCC(=O)N(O)CCCCCNC(=S)Nc1ccc(NC(=S)*)cc1; DOTAGA = O=C(O)CN1CCN(CC(=O)O)CCN(C(CCC(=O)*)C(=O)O)CCN(CC(=O)O)CC1; DOTA = O=C(O)CN1CCN(CC(=O)O)CCN(CC(=O)*)CCN(CC(=O)O)CC1; NODAGA = O=C(O)CN1CCN(CC(=O)O)CCN(C(CCC(=O)*)C(=O)O)CC1; X2 = O=C(O)CN1CCN(CC(=O)O)CCN(Cc2ccc(NC(=S)*)cc2)CC1; NOTA = O=C(O)CN1CCN(CC(=O)O)CCN(CC(=O)*)CC1; 2Nal = N[C@@H](Cc1ccc2ccccc2c1)C(=O)O; dNMeOrn = CN[C@H](CCCN)C(=O)O; 4Amb = NCc1ccc(C(=O)O)cc1

Biological target: T1, CXCR4 (Homo sapiens, UniProt P61073)
T1 construct: endogenous in cells; host or cells: Jurkat T-cell leukemia cells
Assay: competitive binding assay on Jurkat cells with [125I]FC131 as radioligand
Conditions: not given
Method: For in vitro experiments, the Jurkat T - cell line was used. […] The cell line was cultured at 37 °C in a humidified atmosphere with 5 % CO2 and passaged two to three times a week, depending on the cell count.
Jurkat cells (4 × 10^5 cells per vial) were incubated with the respective peptide of interest at the final concentrations ranging from 10^−11 to 10^−5 M and app. […] The total sample volume was 250 μL. After an incubation time of 120 min, the vials were centrifuged at 1300 rpm (Heraeus Megafuge, Thermo) for 3 min and the supernatant was removed. The cells were washed twice with 200 μL ice-cold Hank’s balanced salt solution (HBSS). After each washing step, the samples were centrifuged and the supernatant removed. Finally, the amount of displaced and bound radioligand in the combined fractions of the supernatant and the cell pellet was quantified. The half maximal inhibitory concentration (IC50) values were determined using GraphPad Prism software.

T1 sequence (P61073 whole entry): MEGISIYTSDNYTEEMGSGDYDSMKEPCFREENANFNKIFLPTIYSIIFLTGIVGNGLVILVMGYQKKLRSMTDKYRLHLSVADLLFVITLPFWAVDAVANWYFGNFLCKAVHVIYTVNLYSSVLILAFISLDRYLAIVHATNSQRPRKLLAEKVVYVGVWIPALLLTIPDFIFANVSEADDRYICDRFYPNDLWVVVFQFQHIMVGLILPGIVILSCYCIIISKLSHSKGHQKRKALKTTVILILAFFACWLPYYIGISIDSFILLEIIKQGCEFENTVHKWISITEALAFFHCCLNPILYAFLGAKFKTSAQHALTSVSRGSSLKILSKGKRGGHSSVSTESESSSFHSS

IC50 [nM] | Compound
115 ± 24 | CN1C(=O)[C@@H](Cc2ccc(O)cc2)NC(=O)CNC(=O)[C@H](Cc2ccc3ccccc3c2)NC(=O)[C@H](CCCNC(=N)N)NC(=O)[C@H]1CCCNC(=S)Nc1ccc(CN2CCN(CC(=O)O)CCN(CC(=O)O)CC2)cc1 [Compound 5] (cyclo([2Nal]G[dY][dNMeOrn](X2)R))
275 ± 106 | CN1C(=O)[C@@H](Cc2ccc(O)cc2)NC(=O)CNC(=O)[C@H](Cc2ccc3ccccc3c2)NC(=O)[C@H](CCCNC(=N)N)NC(=O)[C@H]1CCCNC(=O)c1ccc(CNC(=O)CCC(C(=O)O)N2CCN(CC(=O)O)CCN(CC(=O)O)CC2)cc1 (some centres unmarked) [Compound 4] (cyclo([2Nal]G[dY][dNMeOrn]([4Amb-NODAGA])R))
253 ± 49 | CN1C(=O)[C@@H](Cc2ccc(O)cc2)NC(=O)CNC(=O)[C@H](Cc2ccc3ccccc3c2)NC(=O)[C@H](CCCNC(=N)N)NC(=O)[C@H]1CCCNC(=O)c1ccc(CNC(=O)CN2CCN(CC(=O)O)CCN(CC(=O)O)CC2)cc1 [Compound 3] (cyclo([2Nal]G[dY][dNMeOrn]([4Amb-NOTA])R))

More lines, now with the values behind:

Compound | IC50 [nM]
CN1C(=O)[C@@H](Cc2ccc(O)cc2)NC(=O)CNC(=O)[C@H](Cc2ccc3ccccc3c2)NC(=O)[C@H](CCCNC(=N)N)NC(=O)[C@H]1CCCNC(=O)c1ccc(CNC(=O)CCC(C(=O)O)N2CCN(CC(=O)O)CCN(CC(=O)O)CCN(CC(=O)O)CC2)cc1 (some centres unmarked) [Compound 2] (cyclo([2Nal]G[dY][dNMeOrn]([4Amb-DOTAGA])R)) | 654 ± 263
CN1C(=O)[C@@H](Cc2ccc(O)cc2)NC(=O)CNC(=O)[C@H](Cc2ccc3ccccc3c2)NC(=O)[C@H](CCCNC(=N)N)NC(=O)[C@H]1CCCNC(=O)c1ccc(CNC(=S)Nc2ccc(CC(CN(CCN(CC(=O)O)CC(=O)O)CC(=O)O)N(CC(=O)O)CC(=O)O)cc2)cc1 (some centres unmarked) [Compound 7] | 200 ± 73
CC(=O)N(O)CCCCCNC(=O)CCC(=O)N(O)CCCCCNC(=O)CCC(=O)N(O)CCCCCNC(=S)Nc1ccc(NC(=S)NCc2ccc(C(=O)NCCC[C@@H]3C(=O)N[C@@H](CCCNC(=N)N)C(=O)N[C@@H](Cc4ccc5ccccc5c4)C(=O)NCC(=O)N[C@H](Cc4ccc(O)cc4)C(=O)N3C)cc2)cc1 [Compound 8] (cyclo([2Nal]G[dY][dNMeOrn]([4Amb-DFO(CSNHC6H4NHCS)])R)) | 105 ± 35

Same assay, conditions: Jurkat T-cells, 4 × 10^5 cells per vial, app. 0.1 nM [125I]FC131, 120 min incubation, mean ± SD (n = 3)

IC50 [nM] | Compound
17.8 ± 7.7 | CN1C(=O)[C@@H](Cc2ccc(O)cc2)NC(=O)CNC(=O)[C@H](Cc2ccc3ccccc3c2)NC(=O)[C@H](CCCNC(=N)N)NC(=O)[C@H]1CCCNC(=O)c1ccc(CNC(=O)CN2CCN(CC(=O)O)CCN(CC(=O)O)CC2)cc1 [[^natGa^3+]3] [metal not drawn] (cyclo([2Nal]G[dY][dNMeOrn]([4Amb-NOTA])R))
220 ± 57 | CN1C(=O)[C@@H](Cc2ccc(O)cc2)NC(=O)CNC(=O)[C@H](Cc2ccc3ccccc3c2)NC(=O)[C@H](CCCNC(=N)N)NC(=O)[C@H]1CCCNC(=O)c1ccc(CNC(=O)CN2CCN(CC(=O)O)CCN(CC(=O)O)CC2)cc1 [[^natF]AlF-3] (cyclo([2Nal]G[dY][dNMeOrn]([4Amb-NOTA])R))
329 ± 49 | CN1C(=O)[C@@H](Cc2ccc(O)cc2)NC(=O)CNC(=O)[C@H](Cc2ccc3ccccc3c2)NC(=O)[C@H](CCCNC(=N)N)NC(=O)[C@H]1CCCNC(=S)Nc1ccc(CN2CCN(CC(=O)O)CCN(CC(=O)O)CC2)cc1 [[^natF]AlF-5] (cyclo([2Nal]G[dY][dNMeOrn](X2)R))
342 ± 72 | CN1C(=O)[C@@H](Cc2ccc(O)cc2)NC(=O)CNC(=O)[C@H](Cc2ccc3ccccc3c2)NC(=O)[C@H](CCCNC(=N)N)NC(=O)[C@H]1CCCNC(=O)c1ccc(CNC(=O)CCC(C(=O)O)N2CCN(CC(=O)O)CCN(CC(=O)O)CC2)cc1 (some centres unmarked) [[^natGa^3+]4] [metal not drawn] (cyclo([2Nal]G[dY][dNMeOrn]([4Amb-NODAGA])R))
380 ± 102 | CN1C(=O)[C@@H](Cc2ccc(O)cc2)NC(=O)CNC(=O)[C@H](Cc2ccc3ccccc3c2)NC(=O)[C@H](CCCNC(=N)N)NC(=O)[C@H]1CCCNC(=O)c1ccc(CNC(=O)CCC(C(=O)O)N2CCN(CC(=O)O)CCN(CC(=O)O)CCN(CC(=O)O)CC2)cc1 (some centres unmarked) [[^natGa^3+]2] [metal not drawn] (cyclo([2Nal]G[dY][dNMeOrn]([4Amb-DOTAGA])R))
126 ± 89 | CN1C(=O)[C@@H](Cc2ccc(O)cc2)NC(=O)CNC(=O)[C@H](Cc2ccc3ccccc3c2)NC(=O)[C@H](CCCNC(=N)N)NC(=O)[C@H]1CCCNC(=O)c1ccc(CNC(=O)CCC(C(=O)O)N2CCN(CC(=O)O)CCN(CC(=O)O)CCN(CC(=O)O)CC2)cc1 (some centres unmarked) [[^natY^3+]2] [metal not drawn] (cyclo([2Nal]G[dY][dNMeOrn]([4Amb-DOTAGA])R))
343 ± 10 | CN1C(=O)[C@@H](Cc2ccc(O)cc2)NC(=O)CNC(=O)[C@H](Cc2ccc3ccccc3c2)NC(=O)[C@H](CCCNC(=N)N)NC(=O)[C@H]1CCCNC(=O)c1ccc(CNC(=O)CCC(C(=O)O)N2CCN(CC(=O)O)CCN(CC(=O)O)CC2)cc1 (some centres unmarked) [[^natCu^2+]4] [metal not drawn] (cyclo([2Nal]G[dY][dNMeOrn]([4Amb-NODAGA])R))
46.1 ± 26 | CN1C(=O)[C@@H](Cc2ccc(O)cc2)NC(=O)CNC(=O)[C@H](Cc2ccc3ccccc3c2)NC(=O)[C@H](CCCNC(=N)N)NC(=O)[C@H]1CCCNC(=O)c1ccc(CNC(=O)CN2CCN(CC(=O)O)CCN(CC(=O)O)CC2)cc1 [[^natCu^2+]3] [metal not drawn] (cyclo([2Nal]G[dY][dNMeOrn]([4Amb-NOTA])R))

More lines, now with the values behind:

Compound | IC50 [nM]
CN1C(=O)[C@@H](Cc2ccc(O)cc2)NC(=O)CNC(=O)[C@H](Cc2ccc3ccccc3c2)NC(=O)[C@H](CCCNC(=N)N)NC(=O)[C@H]1CCCNC(=O)c1ccc(CNC(=O)CCC(C(=O)O)N2CCN(CC(=O)O)CCN(CC(=O)O)CCN(CC(=O)O)CC2)cc1 (some centres unmarked) [[^natCu^2+]2] [metal not drawn] (cyclo([2Nal]G[dY][dNMeOrn]([4Amb-DOTAGA])R)) | 1160 ± 220
CN1C(=O)[C@@H](Cc2ccc(O)cc2)NC(=O)CNC(=O)[C@H](Cc2ccc3ccccc3c2)NC(=O)[C@H](CCCNC(=N)N)NC(=O)[C@H]1CCCNC(=O)c1ccc(CNC(=O)CN2CCN(CC(=O)O)CCN(CC(=O)O)CCN(CC(=O)O)CC2)cc1 [[^natBi^3+]1] [metal not drawn] (cyclo([dY][dNMeOrn]([4Amb-DOTA])R[2Nal]G)) | 22.1 ± 7
CN1C(=O)[C@@H](Cc2ccc(O)cc2)NC(=O)CNC(=O)[C@H](Cc2ccc3ccccc3c2)NC(=O)[C@H](CCCNC(=N)N)NC(=O)[C@H]1CCCNC(=O)c1ccc(CNC(=O)CCC(C(=O)O)N2CCN(CC(=O)O)CCN(CC(=O)O)CCN(CC(=O)O)CC2)cc1 (some centres unmarked) [[^natBi^3+]2] [metal not drawn] (cyclo([2Nal]G[dY][dNMeOrn]([4Amb-DOTAGA])R)) | 29.4 ± 7.6
CC(=O)N(O)CCCCCNC(=O)CCC(=O)N(O)CCCCCNC(=O)CCC(=O)N(O)CCCCCNC(=S)Nc1ccc(NC(=S)NCc2ccc(C(=O)NCCC[C@@H]3C(=O)N[C@@H](CCCNC(=N)N)C(=O)N[C@@H](Cc4ccc5ccccc5c4)C(=O)NCC(=O)N[C@H](Cc4ccc(O)cc4)C(=O)N3C)cc2)cc1 [[^natZr^4+]8, metal not drawn] (cyclo([2Nal]G[dY][dNMeOrn]([4Amb-DFO(CSNHC6H4NHCS)])R)) | 148 ± 27
CN1C(=O)[C@@H](Cc2ccc(O)cc2)NC(=O)CNC(=O)[C@H](Cc2ccc3ccccc3c2)NC(=O)[C@H](CCCNC(=N)N)NC(=O)[C@H]1CCCNC(=O)c1ccc(CNC(=O)CCC(C(=O)O)N2CCN(CC(=O)O)CCN(CC(=O)O)CCN(CC(=O)O)CC2)cc1 (some centres unmarked) [[^natLu^3+]2] [metal not drawn] (cyclo([2Nal]G[dY][dNMeOrn]([4Amb-DOTAGA])R)) | 188 ± 2.8
CN1C(=O)[C@@H](Cc2ccc(O)cc2)NC(=O)CNC(=O)[C@H](Cc2ccc3ccccc3c2)NC(=O)[C@H](CCCNC(=N)N)NC(=O)[C@H]1CCCNC(=O)c1ccc(CNC(=O)CN2CCN(CC(=O)O)CCN(CC(=O)O)CCN(CC(=O)O)CC2)cc1 [[^natLu^3+]1] [metal not drawn] (cyclo([dY][dNMeOrn]([4Amb-DOTA])R[2Nal]G)) | 40.9 ± 12
CN1C(=O)[C@@H](Cc2ccc(O)cc2)NC(=O)CNC(=O)[C@H](Cc2ccc3ccccc3c2)NC(=O)[C@H](CCCNC(=N)N)NC(=O)[C@H]1CCCNC(=O)c1ccc(CNC(=O)CN2CCN(CC(=O)O)CCN(CC(=O)O)CCN(CC(=O)O)CC2)cc1 [[^natCu^2+]1] [metal not drawn] (cyclo([dY][dNMeOrn]([4Amb-DOTA])R[2Nal]G)) | 131 ± 11

Tested on: hCXCR4
Assay: not given
Conditions: read-out: affinity towards hCXCR4; cited from earlier work

Compound | IC50 [nM]
cyclo(-D-Tyr-N-Me-D-Orn(aminomethylbenzoyl (AMB)-DOTA)-L-Arg-L-2-Nal-Gly-) [[^68Ga]pentixafor] | 5

Tested on: OH1 human small cell lung cancer tumor-bearing mice
Assay: not given
Conditions: mouse, in vivo, 1 h; cited from earlier work

Compound | uptake in CXCR4-expressing tissue (tumor)
cyclo(-D-Tyr-N-Me-D-Orn(aminomethylbenzoyl (AMB)-DOTA)-L-Arg-L-2-Nal-Gly-) [[^68Ga]pentixafor] | 6.16 % ± 1.16 % ID/g
